The source of these data is US8377884B2, “Variants of C-type natriuretic peptides” (Biomarin Pharmaceutical Inc., priority 2007, dated 2013).

One data set has as its target Recombinant human NEP (Homo sapiens, UniProt P08473). The data set can be described thus: In vitro neutral endopeptidase (NEP) cleavage assay. To be noted: in vitro NEP cleavage assay, assay period 160 minutes. Put shortly:
(§1)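 Recombinant human NEP (1 ug/mL final) incubated with 100 uM CNP variant in 0.1 M Tris, pH 7, at 37° C for various times, then quenched with EDTA (10 mM final) and heat. Samples reduced and analysed by HPLC and mass spectrometry. Half-life derived from loss of intact variant over time.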

In data set [1] the target is neutral endopeptidase (NEP) (Homo sapiens, UniProt P08473). Described as above. The following applies: human, pH 7. In short, it runs like this:
as §1

In a further data set the target is T1, NPR-B (Mus musculus, UniProt Q6VVW5).
T1 construct: Murine NIH3T3 cells express endogenously the CNP signaling receptor, NPR-B; endogenous in cells; host or cells: NIH3T3 (murine fibroblasts)
T1 sequence (Q6VVW5 17-1047): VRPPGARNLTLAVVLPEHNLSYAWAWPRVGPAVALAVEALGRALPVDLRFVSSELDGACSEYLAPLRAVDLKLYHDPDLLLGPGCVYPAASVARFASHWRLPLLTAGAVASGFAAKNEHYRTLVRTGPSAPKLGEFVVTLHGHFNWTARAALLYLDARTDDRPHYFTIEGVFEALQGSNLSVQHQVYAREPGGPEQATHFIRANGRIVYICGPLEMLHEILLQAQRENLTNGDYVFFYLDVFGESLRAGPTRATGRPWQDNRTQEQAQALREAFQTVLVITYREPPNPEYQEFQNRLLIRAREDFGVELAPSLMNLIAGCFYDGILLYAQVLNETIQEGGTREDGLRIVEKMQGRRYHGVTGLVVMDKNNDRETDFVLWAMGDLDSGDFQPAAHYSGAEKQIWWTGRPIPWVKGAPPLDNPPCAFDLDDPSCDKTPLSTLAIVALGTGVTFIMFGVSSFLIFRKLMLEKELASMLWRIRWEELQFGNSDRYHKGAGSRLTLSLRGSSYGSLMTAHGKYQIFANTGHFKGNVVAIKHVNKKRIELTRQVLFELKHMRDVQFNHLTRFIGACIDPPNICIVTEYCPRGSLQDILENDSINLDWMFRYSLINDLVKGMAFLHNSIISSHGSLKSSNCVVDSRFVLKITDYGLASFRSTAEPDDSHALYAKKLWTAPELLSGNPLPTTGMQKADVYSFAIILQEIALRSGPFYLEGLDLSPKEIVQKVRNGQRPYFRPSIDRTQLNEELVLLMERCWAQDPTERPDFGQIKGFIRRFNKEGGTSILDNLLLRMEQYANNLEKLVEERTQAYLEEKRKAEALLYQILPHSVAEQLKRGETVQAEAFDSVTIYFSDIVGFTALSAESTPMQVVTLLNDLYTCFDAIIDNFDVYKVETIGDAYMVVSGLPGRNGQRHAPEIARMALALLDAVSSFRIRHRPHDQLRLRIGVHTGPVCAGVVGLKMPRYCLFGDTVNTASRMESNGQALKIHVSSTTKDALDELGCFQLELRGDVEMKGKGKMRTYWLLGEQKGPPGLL
Briefly: Stimulation of cGMP production in NIH3T3 cells. It is filed as cell-based, Murine. The following applies: for cGMP response relative to 1 uM CNP22 (%) at 0.01 µM: read-out: cGMP Response rel. to 1 uM CNP22, 10 nM; for cGMP response relative to 1 uM CNP22 (%) at 1 µM: read-out: cGMP Response rel. to 1 uM CNP22, 1 uM.

Structures are written as SMILES. “Also recorded” adds a separate entry of the source. Like-named read-outs stand apart in the source and are kept apart here. Bridge positions count the residues as written; N and C are the ends. Peptide text beside a SMILES is read from it.

Sequence of neutral endopeptidase (NEP) (P08473 whole entry): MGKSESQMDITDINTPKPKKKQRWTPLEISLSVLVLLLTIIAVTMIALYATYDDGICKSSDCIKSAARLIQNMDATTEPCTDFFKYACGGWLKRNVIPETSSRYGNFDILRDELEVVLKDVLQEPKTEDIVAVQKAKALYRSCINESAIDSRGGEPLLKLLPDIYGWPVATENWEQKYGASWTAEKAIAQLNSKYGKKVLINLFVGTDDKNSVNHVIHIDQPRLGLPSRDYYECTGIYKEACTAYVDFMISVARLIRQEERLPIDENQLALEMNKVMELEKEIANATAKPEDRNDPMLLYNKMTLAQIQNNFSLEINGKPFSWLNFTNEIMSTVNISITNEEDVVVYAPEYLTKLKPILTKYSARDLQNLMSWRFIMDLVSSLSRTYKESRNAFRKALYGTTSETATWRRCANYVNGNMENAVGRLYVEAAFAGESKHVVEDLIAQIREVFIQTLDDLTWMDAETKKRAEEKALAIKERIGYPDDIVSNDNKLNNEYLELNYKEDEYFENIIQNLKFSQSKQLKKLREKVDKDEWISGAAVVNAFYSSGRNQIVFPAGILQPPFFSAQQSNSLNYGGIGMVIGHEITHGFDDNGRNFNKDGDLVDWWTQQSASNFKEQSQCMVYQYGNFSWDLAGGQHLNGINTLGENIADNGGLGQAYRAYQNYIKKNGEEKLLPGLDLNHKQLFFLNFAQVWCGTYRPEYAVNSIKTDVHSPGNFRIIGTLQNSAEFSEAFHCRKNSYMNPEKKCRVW
Sequence of Recombinant human NEP (P08473 whole entry): as above

On to `CC[C@H](C)[C@@H]1NC(=O)[C@H](CCCNC(=N)N)NC(=O)[C@H](CC(=O)O)NC(=O)[C@H](CC(C)C)NC(=O)[C@H](CCCCN)NC(=O)[C@H](CC(C)C)NC(=O)CNC(=O)[C@H](Cc2ccccc2)NC(=O)[C@@H](NC(=O)CNC(=O)[C@H](CCCCN)NC(=O)[C@H](CO)NC(=O)[C@H](CC(C)C)NC(=O)CNC(=O)[C@H](CO)NC(=O)[C@@H]2CCCN2C(=O)[C@@H]2CCCN2C(=O)[C@H](CC(C)C)NC(=O)[C@@H](NC(=O)[C@H](Cc2ccc(O)cc2)NC(=O)[C@@H](NC(=O)[C@H](CCC(N)=O)NC(=O)[C@@H]2CCCN2C(=O)[C@H](CCC(=O)O)NC(=O)[C@H](CCCNC(=N)N)NC(=O)[C@@H]2CCCN2C(=O)[C@H](CCC(N)=O)NC(=O)CN)C(C)C)[C@@H](C)O)CSSC[C@@H](C(=O)O)NC(=O)CNC(=O)[C@H](CC(C)C)NC(=O)CNC(=O)[C@H](CO)NC(=O)[C@H](CCSC)NC(=O)[C@H](CO)NC(=O)CNC1=O` [CF] (H-GQPREPQVYTLPPSGLSKGCFGLKLDRIGSMSGLGC-OH; disulfide 20-36 (inferred); N-terminus and C-terminus assumed), for which the “resistance to NEP cleavage/degradation (in words)” value at Recombinant human NEP is listed as “most resistant to NEP degradation; also recorded: much more resistant to NEP cleavage than CNP22”. Further, in data set [1], the half-life (usually the time needed for the level to fall by half in the phase considered) at 100 uM was over 2.67 h. Besides, on NPR-B (NIH3T3, […]), the cGMP response relative to 1 uM CNP22 (%) at 0.01 µM was found to be 23 ± 9% and the cGMP response relative to 1 uM CNP22 (%) at 1 µM is 72 ± 19%.

On to `CC[C@H](C)[C@@H]1NC(=O)[C@H](CCCNC(=N)N)NC(=O)[C@H](CC(=O)O)NC(=O)[C@H](CC(C)C)N(C)C(=O)[C@H](CCCCN)NC(=O)[C@H](CC(C)C)N(C)C(=O)CNC(=O)[C@H](Cc2ccccc2)NC(=O)[C@@H](NC(=O)CNC(=O)[C@H](CCCCN)NC(=O)[C@H](CO)NC(=O)[C@H](CC(C)C)NC(=O)CN)CSSC[C@@H](C(=O)O)NC(=O)CNC(=O)[C@H](CC(C)C)NC(=O)CNC(=O)[C@H](CO)NC(=O)[C@H](CCSC)NC(=O)[C@H](CO)NC(=O)CNC1=O` [M], for which the “resistance to NEP cleavage/degradation (in words)” value on Recombinant human NEP is “greatest resistance to NEP cleavage”. The molecule also had a half-life at 100 uM in data set [1] of over 2.67 h. Besides, at NPR-B (NIH3T3, […]), the cGMP response relative to 1 uM CNP22 (%) at 0.01 µM turned out to be 1% and the cGMP response relative to 1 uM CNP22 (%) at 1 µM was found to be 11%.

Turning to `CC[C@H](C)[C@@H]1NC(=O)[C@H](CCCNC(=N)N)NC(=O)[C@H](CC(=O)O)NC(=O)[C@H](CC(C)C)N(C)C(=O)[C@H](CCCCN)NC(=O)[C@H](CC(C)C)N(C)C(=O)CNC(=O)[C@H](Cc2ccccc2)NC(=O)[C@@H](NC(=O)CNC(=O)[C@H](CCCCN)NC(=O)[C@H](CO)NC(=O)[C@H](CC(C)C)NC(=O)CN)CSSC[C@@H](C(=O)O)NC(=O)CNC(=O)[C@H](CC(C)C)N(C)C(=O)CNC(=O)[C@H](CO)NC(=O)[C@H](CCSC)NC(=O)[C@H](CO)NC(=O)CNC1=O` [L], the “resistance to NEP cleavage/degradation (in words)” value on Recombinant human NEP was “significantly shorter half-life”. This molecule also came in with a half-life at 100 uM in data set [1] of 0.5 h. Moreover, at NPR-B (NIH3T3, […]), the cGMP response relative to 1 uM CNP22 (%) at 0.01 µM is 18% and the cGMP response relative to 1 uM CNP22 (%) at 1 µM is 10%.

In the case of `CC[C@H](C)[C@@H]1NC(=O)[C@H](CCCNC(=N)N)NC(=O)[C@H](CC(=O)O)NC(=O)[C@H](CC(C)C)NC(=O)[C@H](CCCCN)NC(=O)[C@H](CC(C)C)NC(=O)CNC(=O)[C@H](Cc2ccccc2)NC(=O)[C@@H](NC(=O)CNC(=O)[C@H](CCCCN)NC(=O)[C@H](CO)NC(=O)[C@H](CC(C)C)NC(=O)CNC(=O)CCOCCOCCOCCOCCOCCOCCOCCOCCOCCOCCOCCOCCOCCOCCOCCOCCOCCOCCOCCOCCOCCOCCOCCOC)CSSC[C@@H](C(=O)O)NC(=O)CNC(=O)[C@H](CC(C)C)NC(=O)CNC(=O)[C@H](CO)NC(=O)[C@H](CCSC)NC(=O)[C@H](CO)NC(=O)CNC1=O` [PEO24-CNP22], the “resistance to NEP cleavage/degradation (in words)” value with Recombinant human NEP is reported as “resistant to NEP degradation over the assay period of 160 minutes”. This molecule yielded a half-life at 100 uM in data set [1] of over 2.67 h. In addition, the cGMP response relative to 1 uM CNP22 (%) at 0.01 µM at NPR-B (NIH3T3 cells, 10 nM natriuretic peptide, normalized to cell number and cGMP production with 1 uM wtCNP22) was 8 ± 5%. Also, the cGMP response relative to 1 uM CNP22 (%) at 1 µM at NPR-B (NIH3T3 cells, 1 uM natriuretic peptide, normalized to cell number and cGMP production with 1 uM wtCNP22) is 46 ± 10%.

`CC[C@H](C)[C@@H]1NC(=O)[C@H](CCCNC(=N)N)NC(=O)[C@H](CC(=O)O)NC(=O)[C@H](CC(C)C)NC(=O)[C@H](CCCCN)NC(=O)[C@H](CC(C)C)NC(=O)CNC(=O)[C@H](Cc2ccccc2)NC(=O)[C@@H](NC(=O)CNC(=O)[C@H](CCCNC(=N)N)NC(=O)[C@H](CO)NC(=O)[C@H](CC(C)C)NC(=O)CN)CSSC[C@@H](C(=O)O)NC(=O)CNC(=O)[C@H](CC(C)C)NC(=O)CNC(=O)[C@H](CO)NC(=O)[C@H](CCSC)NC(=O)[C@H](CO)NC(=O)[C@H](CO)NC1=O` [BK] (H-GLSRGCFGLKLDRISSMSGLGC-OH; disulfide 6-22 (inferred); N-terminus and C-terminus assumed): at Recombinant human NEP, the “resistance to NEP cleavage/degradation (in words)” value is given as “greatest resistance to NEP cleavage”. This molecule also registered a half-life at 100 uM in data set [1] of at least 2.67 h. In addition, on NPR-B (NIH3T3, […]), the cGMP response relative to 1 uM CNP22 (%) at 0.01 µM was determined as 13 ± 1% and the cGMP response relative to 1 uM CNP22 (%) at 1 µM is 71 ± 11%.
